Source: patent US10328053B2 (Gilead Sciences, Inc., priority 2016, dated 2019)

Assay: Hepatic Stability Assay (in vitro half-life method)
Format: in vitro ADME
Design: dose or concentration left out as unconfirmed
Settings: pooled cryopreserved hepatocytes, 37° C., 1×10^6 cells/mL, 0-6 hours, LC-MS/MS, 39.5 hours is the maximum detectable half life, read-out: t½ (converted)
Procedure: Hepatic Stability Assay The metabolic stability of certain compounds disclosed herein was assessed in vitro in pooled cryopreserved hepatocytes using the in vitro half-life method. Incubations were at 37° C. and final concentrations in the incubations were 1×10^6 cells/mL and […] test concentration of the compound. Aliquots were sequentially removed after 0, 1, 3 and 6 hours and analyzed by LC-MS/MS. In vitro half-life was determined by measuring the rate of disappearance of the compound and then scaled to predicted hepatic clearance using the well-stirred model. […] As such, compounds having a value of 39.5 may have a half live that exceeds 39.5 hours.

Row | SMILES | half-life
1 | Cc1nnc(C2(NC(=O)C(=O)c3c(C)c(C(=O)Nc4ccc(F)c(Cl)c4)n4c3CCC4)CC2)o1 [Example 64, N-(3-chloro-4-fluorophenyl)-6-methyl-7-(2-((1-(5-methyl-1,3,4-oxadiazol-2-yl)cyclopropyl)amino)-2-oxoacetyl)-2,3-dihydro-1H-pyrrolizine-5-carboxamide] | 13.2 h
2 | Cc1c(C(=O)C(=O)NC2(c3c[nH]nn3)CC2)c2n(c1C(=O)Nc1cccc(F)c1)CCC2 [Example 69, 7-(2-((1-(1H-1,2,3-triazol-4-yl)cyclopropyl)amino)-2-oxoacetyl)-N-(3-fluorophenyl)-6-methyl-2,3-dihydro-1H-pyrrolizine-5-carboxamide] | 17 h
3 | CNC(=O)C1(NC(=O)C(=O)c2c(C)c(C(=O)Nc3ccc(F)c(Cl)c3)n3c2CCC3C)CC(F)(F)C1 (racemic) [Example 18, N-(3-chloro-4-fluorophenyl)-7-(2-((3,3-difluoro-1-(methylcarbamoyl)cyclobutyl)amino)-2-oxoacetyl)-3,6-dimethyl-2,3-dihydro-1H-pyrrolizine-5-carboxamide] | 6 h
4 | CNC(=O)C1(NC(=O)C(=O)c2c(C)c(C(=O)Nc3ccc(F)c(Cl)c3)n3c2C[C@H]2C[C@H]23)CC(F)(F)C1 [Example 5, (1aR,6aR)—N-(3-chloro-4-fluorophenyl)-5-(2-((3,3-difluoro-1-(methylcarbamoyl)cyclobutyl)amino)-2-oxoacetyl)-4-methyl-1,1a,6,6a-tetrahydrocyclopropa[b]pyrrolizine-3-carboxamide] | 5.2 h
5 | Cc1c(C(=O)C(=O)NC2(c3c[nH]nn3)CC(F)(F)C2)c2n(c1C(=O)Nc1ccnc(C(F)F)c1F)CCC2 [Example 59, 7-(2-((3,3-difluoro-1-(1H-1,2,3-triazol-4-yl)cyclobutyl)amino)-2-oxoacetyl)-N-(2-(difluoromethyl)-3-fluoropyridin-4-yl)-6-methyl-2,3-dihydro-1H-pyrrolizine-5-carboxamide] | 22.3 h
6 | Cc1c(C(=O)C(=O)NC2(C)CS(=O)(=O)C2)c2n(c1C(=O)Nc1cc(F)c(F)c(F)c1)[C@@H]1C[C@@H]1C2 [Example 73, (1aR,6aR)-4-methyl-5-(2-((3-methyl-1,1-dioxidothietan-3-yl)amino)-2-oxoacetyl)-N-(3,4,5-trifluorophenyl)-1,1a,6,6a-tetrahydrocyclopropa[b]pyrrolizine-3-carboxamide] | 16.1 h
7 | Cc1c(C(=O)C(=O)NC2(c3c[nH]nn3)CC2)c2n(c1C(=O)Nc1cc(F)c(F)c(F)c1)CCC2 [Example 26, 7-(2-((1-(1H-1,2,3-triazol-4-yl)cyclopropyl)amino)-2-oxoacetyl)-6-methyl-N-(3,4,5-trifluorophenyl)-2,3-dihydro-1H-pyrrolizine-5-carboxamide] | 8.2 h
8 | Cc1c(C(=O)C(=O)NC2(c3nncs3)CC2)c2n(c1C(=O)Nc1ccnc(C(F)F)c1)[C@@H]1C[C@@H]1C2 [Example 62, (1aR,6aR)-5-(2-((1-(1,3,4-thiadiazol-2-yl)cyclopropyl)amino)-2-oxoacetyl)-N-(2-(difluoromethyl)pyridin-4-yl)-4-methyl-1,1a,6,6a-tetrahydrocyclopropa[b]pyrrolizine-3-carboxamide] | 5.3 h
9 | Cc1c(C(=O)C(=O)NC2(c3nncs3)CC2)c2n(c1C(=O)Nc1ccc(F)c(F)c1)[C@@H]1C[C@@H]1C2 [Example 61, (1aR,6aR)-5-(2-((1-(1,3,4-thiadiazol-2-yl)cyclopropyl)amino)-2-oxoacetyl)-N-(3,4-difluorophenyl)-4-methyl-1,1a,6,6a-tetrahydrocyclopropa[b]pyrrolizine-3-carboxamide] | 5.4 h
10 | CNC(=O)C1(NC(=O)C(=O)c2c(C)c(C(=O)Nc3ccc(F)c(Cl)c3)n3c2CCC3(C)C)CC(F)(F)C1 [Example 15, N-(3-chloro-4-fluorophenyl)-7-(2-((3,3-difluoro-1-(methylcarbamoyl)cyclobutyl)amino)-2-oxoacetyl)-3,3,6-trimethyl-2,3-dihydro-1H-pyrrolizine-5-carboxamide] | 0.5 h
11 | Cc1c(C(=O)C(=O)N[C@H](C)C(F)(F)F)c2n(c1C(=O)Nc1ccc(F)c(Cl)c1)C(C)CC2 (single isomer, unassigned) [Example 24] | 5 h
12 | Cc1c(C(=O)C(=O)NC2(C)CS(=O)(=O)C2)c2n(c1C(=O)Nc1ccc(F)c(Cl)c1)[C@@H]1C[C@@H]1C2 [Example 71, (1aR,6aR)—N-(3-chloro-4-fluorophenyl)-4-methyl-5-(2-((3-methyl-1,1-dioxidothietan-3-yl)amino)-2-oxoacetyl)-1,1a,6,6a-tetrahydrocyclopropa[b]pyrrolizine-3-carboxamide] | 7.3 h

Results, then the compound that gave them:

Row | half-life | SMILES
13 | 19.5 h | Cc1c(C(=O)C(=O)NC2(c3c[nH]nn3)CC2)c2n(c1C(=O)Nc1cc(F)cc(F)c1)CCC2 [Example 76, 7-(2-((1-(1H-1,2,3-triazol-4-yl)cyclopropyl)amino)-2-oxoacetyl)-N-(3,5-difluorophenyl)-6-methyl-2,3-dihydro-1H-pyrrolizine-5-carboxamide]
14 | 28.8 h | CNC(=O)C1(NC(=O)C(=O)c2c(C)c(C(=O)Nc3ccc(F)cc3)n3c2C[C@H]2C[C@H]23)CC(F)(F)C1 [Example 95, (1aR,6aR)-5-(2-((3,3-difluoro-1-(methylcarbamoyl)cyclobutyl)amino)-2-oxoacetyl)-N-(4-fluorophenyl)-4-methyl-1,1a,6,6a-tetrahydrocyclopropa[b]pyrrolizine-3-carboxamide]
15 | 5 h | Cc1c(C(=O)C(=O)N[C@]2(C)C[S@@+]([O-])C2)c2n(c1C(=O)Nc1ccc(F)c(F)c1)CCC2 [Example 151, N-(3,4-difluorophenyl)-6-methyl-7-(2-(((1r,3r)-3-methyl-1-oxidothietan-3-yl)amino)-2-oxoacetyl)-2,3-dihydro-1H-pyrrolizine-5-carboxamide]
16 | 1.9 h | Cc1c(C(=O)C(=O)NC2(C(=O)N(C)C)CC(F)(F)C2)c2n(c1C(=O)Nc1ccc(F)c(F)c1)CCC2 [Example 125, N-(3,4-difluorophenyl)-7-(2-((1-(dimethylcarbamoyl)-3,3-difluorocyclobutyl)amino)-2-oxoacetyl)-6-methyl-2,3-dihydro-1H-pyrrolizine-5-carboxamide]
17 | 13.5 h | Cc1c(C(=O)C(=O)NC2(C(N)=O)CC(F)(F)C2)c2n(c1C(=O)Nc1cc(F)c(F)c(F)c1)CCC2 [Example 140, 7-(2-((1-carbamoyl-3,3-difluorocyclobutyl)amino)-2-oxoacetyl)-6-methyl-N-(3,4,5-trifluorophenyl)-2,3-dihydro-1H-pyrrolizine-5-carboxamide]
18 | 8.5 h | Cc1c(C(=O)C(=O)NC2(c3c[nH]nn3)CC2)c2n(c1C(=O)Nc1cccc(C(F)F)c1)CCC2 [Example 103, 7-(2-((1-(1H-1,2,3-triazol-4-yl)cyclopropyl)amino)-2-oxoacetyl)-N-(3-(difluoromethyl)phenyl)-6-methyl-2,3-dihydro-1H-pyrrolizine-5-carboxamide]
19 | 12.5 h | Cc1c(C(=O)C(=O)N[C@](C)(CO)C(F)(F)F)c2n(c1C(=O)Nc1ccc(F)c(F)c1)CCC2 [Example 133, (R)—N-(3,4-difluorophenyl)-6-methyl-7-(2-oxo-2-((1,1,1-trifluoro-3-hydroxy-2-methylpropan-2-yl)amino)acetyl)-2,3-dihydro-1H-pyrrolizine-5-carboxamide]
20 | 9.7 h | Cc1c(C(=O)C(=O)NC2(C)C[S+]([O-])C2)c2n(c1C(=O)Nc1ccc(F)c(F)c1)CCC2 (centres unmarked) [Example 145, N-(3,4-difluorophenyl)-6-methyl-7-(2-((3-methyl-1-oxidothietan-3-yl)amino)-2-oxoacetyl)-2,3-dihydro-1H-pyrrolizine-5-carboxamide]
21 | 19.8 h | Cc1c(C(=O)C(=O)NC2(C(N)=O)CC(F)(F)C2)c2n(c1C(=O)Nc1ccc(F)c(F)c1)CCC2 [Example 121, 7-(2-((1-carbamoyl-3,3-difluorocyclobutyl)amino)-2-oxoacetyl)-N-(3,4-difluorophenyl)-6-methyl-2,3-dihydro-1H-pyrrolizine-5-carboxamide]
22 | 14.9 h | Cc1c(C(=O)C(=O)NC2(c3c[nH]nn3)CC2)c2n(c1C(=O)Nc1ccc(F)c(C#N)c1)[C@@H]1C[C@@H]1C2 [Example 79, (1aR,6aR)-5-(2-((1-(1H-1,2,3-triazol-4-yl)cyclopropyl)amino)-2-oxoacetyl)-N-(3-cyano-4-fluorophenyl)-4-methyl-1,1a,6,6a-tetrahydrocyclopropa[b]pyrrolizine-3-carboxamide]
23 | 20.8 h | CNC(=O)C1(NC(=O)C(=O)c2c(C)c(C(=O)Nc3cc(F)c(F)c(Cl)c3)n3c2CCC3)CC(F)(F)C1 [Example 129, N-(3-chloro-4,5-difluorophenyl)-7-(2-((3,3-difluoro-1-(methylcarbamoyl)cyclobutyl)amino)-2-oxoacetyl)-6-methyl-2,3-dihydro-1H-pyrrolizine-5-carboxamide]
24 | 7.6 h | Cc1c(C(=O)C(=O)NC2(C#N)CC(F)(F)C2)c2n(c1C(=O)Nc1ccc(F)c(F)c1)CCC2 [Example 131, 7-(2-((1-cyano-3,3-difluorocyclobutyl)amino)-2-oxoacetyl)-N-(3,4-difluorophenyl)-6-methyl-2,3-dihydro-1H-pyrrolizine-5-carboxamide]
25 | 6.6 h | Cc1c(C(=O)C(=O)NC2(C#N)CC(F)(F)C2)c2n(c1C(=O)Nc1ccc(F)c(Cl)c1)CCC2 [Example 130, N-(3-chloro-4-fluorophenyl)-7-(2-((1-cyano-3,3-difluorocyclobutyl)amino)-2-oxoacetyl)-6-methyl-2,3-dihydro-1H-pyrrolizine-5-carboxamide]
26 | 10.5 h | Cc1c(C(=O)C(=O)N[C@]2(C)C[S@+]([O-])C2)c2n(c1C(=O)Nc1ccc(F)c(F)c1)CCC2 [Example 152, N-(3,4-difluorophenyl)-6-methyl-7-(2-(((1s,3s)-3-methyl-1-oxidothietan-3-yl)amino)-2-oxoacetyl)-2,3-dihydro-1H-pyrrolizine-5-carboxamide]
